Reference: patent US5482930A, “Anti-inflammatory composition and method with des-Tyr dynorphin and analogues” (The Regents of the University of California, priority 1993, dated 1996)
Counter-ions that a name gives are not always drawn. Residues, ends and D or L forms follow the SMILES beside them.

What was measured:
[1] = Blood pressure and oxygenation after i.v. dose; format: in vivo, rat; settings: 0.2 mg/kg i.v.
[2] = tested on: thermal edema of the hind paw; assay: Heat-induced swelling and edema of the rat hind paw (58° C. water, one minute); format: in vivo; settings: for ED50, reducing thermal edema: i.v., anesthetized rat, hind paw 58° C. water one minute; for anti-inflammatory effect (FIG. 1): FIG. 1 legend
Procedure: In one bioassay, dynorphin A (2-17), synthesized by standard solid phase methods, was dissolved in sterile saline and injected intravenously via a branch of the femoral vein at various doses into an anesthetized rat. Ten minutes later a hind paw was immersed in 58° C. water for one minute. Thirty minutes after exposure to heat, the paw was removed at the ankle joint and weighed. The percent increase in weight of the heated paw relative to the unheated paw was taken as the index of inflammatory thermal edema. The general principles of this method have been discussed by Wei and Thomas, Ann. Rev. of Pharmacol. and Toxicol., 33, pp. 91-108 (1993).
Anesthetized rats were injected intravenously (i.v.) with saline (1 ml/kg) or naloxone hydrochloride ([…]) 5 minutes prior to i.v. injection with saline ([…]), dynorphin A (2-17) (0.5 mg/kg), or N-acetyldynorphin A (6-12 )-amide (3 mg/kg). Ten minutes after the second injection, the rat's hind paw was immersed in 58° C. water for one minute and 30 minutes later the animals were euthanized and the heated and unheated paw weights were measured. After saline/saline or naloxone HCl/saline, the percent increase in the weight of the heated paw, relative to the unheated paw, were 104±10% and 98±9%, respectively. The percent increases for the saline/dynorphin A (2-17) and naloxone HCl/dynorphin A (2-17) groups were 26±6% and 26±5%, respectively. The percent increases for the saline/N-acetyl-dynorphin A (6-12) amide and naloxone HCl/N-acetyl-dynorphin A (6-12) amide groups were 21±3% and 27±12%, respectively.

[3] = Direct comparison of dynorphin A analogs with an amide or a carboxyl C-terminus (ED50, bioassay not given); format: in vivo; settings: i.v.; amide versus carboxyl C-terminus
Procedure: Similar results were obtained for D-Ala^2 -dynorphin A (1-17) amide, with an ED50 value of 0.5 mg/kg i.v. versus a value of 1.0 mg/kg i.v. for D-Ala^2 -dynorphin A (1-17).

[4] = tested on: neurogenic inflammation; settings: intravenous route; relative to saline-injected controls; cited from earlier work
[5] = tested on: edema in the anesthetized rat's paw after thermal injury; settings: 3.75 mg/kg administered intravenously; cited from earlier work

## CC[C@H](C)[C@H](NC(=O)[C@H](CCCNC(=N)N)NC(=O)[C@H](CCCNC(=N)N)NC(=O)[C@H](CC(C)C)NC(=O)[C@H](Cc1ccccc1)NC(=O)CNC(=O)CN)C(=O)N[C@@H](CCCNC(=N)N)C(=O)N1CCC[C@H]1C(=O)N[C@@H](CCCCN)C(=O)N[C@@H](CC(C)C)C(=O)N[C@@H](CCCCN)C(=O)N[C@@H](Cc1c[nH]c2ccccc12)C(=O)N[C@@H](CC(=O)O)C(=O)N[C@@H](CC(N)=O)C(=O)N[C@@H](CCC(N)=O)C(=O)O [Embodiment NO:1, G-G-F-L-R-R-I-R-P-K-L-K-W-D-N-Q]
[1]
  cyanosis / oxygenation: no evidence of cyanosis
  effect on blood pressure: slight fall in blood pressure
[1]; then mean arterial pressure returned to baseline
  duration of fall in blood pressure: 10 to 15 min

## CC[C@H](C)[C@H](NC(=O)[C@H](CCCNC(=N)N)NC(=O)[C@H](CCCNC(=N)N)NC(C)=O)C(=O)N[C@@H](CCCNC(=N)N)C(=O)N1CCC[C@H]1C(=O)N[C@@H](CCCCN)C(=O)N[C@H](CC(C)C)C(N)=O [Embodiment NO:4, Ac-R-R-I-R-P-K-l-NH2] (HELM PEPTIDE1{[ac].R.R.I.R.P.K.[dL].[am]}$$$$V2.0)
[2]
  ED50, reducing thermal edema: 2.2 (1.2-4.1) mg/kg

## C=CCN1CC[C@]23c4c5ccc(O)c4O[C@H]2C(=O)CC[C@@]3(O)[C@H]1C5 [naloxone HCl, naloxone hydrochloride]
[2]; naloxone HCl (4 ml/kg) i.v. then saline, no peptide
  percent increase in the weight of the heated paw, relative to the unheated paw: 98±9%

## Ac-RRIRPKL-NH2 [Embodiment NO:3, Ac-R-R-I-R-P-K-L-NH2]
[2]
  ED50, reducing thermal edema: 1.4 (0.6-3.7) mg/kg
[2]; naloxone HCl pretreatment, then peptide 3 mg/kg i.v.
  percent increase in the weight of the heated paw, relative to the unheated paw: 27±12%
[2]; peptide 3 mg/kg i.v., naloxone 4 mg/kg i.v.
  antagonism of anti-inflammatory effect by naloxone: not antagonized
[2]; saline pretreatment, then peptide 3 mg/kg i.v.
  percent increase in the weight of the heated paw, relative to the unheated paw: 21±3%

## D-Ala^2 -dynorphin A (1-17)
[3]
  ED50: 1.0 mg/kg

## D-Ala^2 -dynorphin A (1-17) amide
[3]
  ED50: 0.5 mg/kg

## D-Ala^2 -dynorphin A (2-17)
[3]
  ED50: 1.2 mg/kg

## D-Ala^2 -dynorphin A (2-17) amide
[3]
  ED50: 0.65 mg/kg

## dynorphin A (1-10) amide
[4]
  median effective dose (ED50) producing 50% inhibition of dye leakage: 5.0 (3.5-7.2) mg/kg

## dynorphin A (1-13)
[5]
  prevention of edema after thermal injury: prevent edema
[2]
  anti-inflammatory effect (FIG. 1): substantially lacking potency
  ED50, reducing thermal edema: 3.2 (1.9-5.5) mg/kg
[4]
  median effective dose (ED50) producing 50% inhibition of dye leakage: 1.9 (1.5-2.4) mg/kg

## dynorphin A (1-17)
[2]
  anti-inflammatory effect (FIG. 1): substantially lacking potency
  ED50, reducing thermal edema: 1.7 (1.2-2.4) mg/kg
